Literature values as cited in patent US10449129B2, “Encapsulates of salicylic acid and polysalicylic acid derivatives” (Biocogent, LLC, priority 2015, dated 2019).

Settings: room temperature

## O=C(O)c1ccccc1O [SA, salicylic acid]
  limit of solubility in water: approximately 0.2%
